US10448639B2, “Fungicidal pyrazoles” (FMC CORPORATION, priority 2009, dated 2019)

Columns and labels:
[1] = test system: Puccinia recondita f. sp. tritici; assay: Test I: wheat leaf rust, preventive spray on wheat seedlings, visual disease rating; settings: for Test I rating (% disease control) / Test I disease control rating: wheat leaf rust, 100 = 100% disease control; for Test I disease control rating: sprayed the day before inoculation, 0 = no disease control relative to controls; for pest or weed control at 200 µg/mL: 192 h, read-out: Test I rating (% disease control)
[2] = test system: Botrytis cinerea; assay: Test B: tomato Botrytis, preventive spray on tomato seedlings, visual disease rating; settings: for Test B rating (% disease control) / Test B disease control rating: tomato Botrytis, 100 = 100% disease control; for Test B disease control rating: 0 = no disease control relative to controls; for pest or weed control at 200 µg/mL: Botrytis cinerea, in Solanum lycopersicum, 120 h, read-out: Test B rating (% disease control)
[3] = test system: Septoria tritici; assay: Test G: wheat leaf blotch, preventive spray on wheat seedlings, visual disease rating; settings: for Test G rating (% disease control) / Test G disease control rating: wheat leaf blotch, 100 = 100% disease control; for Test G disease control rating: sprayed the day before inoculation, 0 = no disease control relative to controls; for pest or weed control at 200 µg/mL: Zymoseptoria tritici, in Triticum aestivum, 504 h, read-out: Test G rating (% disease control)
Description: (§1) General protocol for preparing test suspensions for Tests A-J: the test compounds were first dissolved in acetone in an amount equal to 3% of the final volume and then suspended at the desired concentration (in ppm) in acetone and purified water (50/50 mix by volume) containing 250 ppm of the surfactant Trem® 014 (polyhydric alcohol esters). The resulting test suspensions were then used in Tests A-J. Spraying a 200 ppm test suspension to the point of run-off on the test plants was the equivalent of a rate of 500 g/ha. Unless otherwise indicated, the rating values indicate a 200 ppm test suspension was used. (An asterisk “*” next to the rating value indicates a 40 ppm test suspension was used.)
The test suspension was sprayed to the point of run-off on wheat seedlings. The following day the seedlings were inoculated with a spore suspension of Septoria tritici (the causal agent of wheat leaf blotch) and incubated in saturated atmosphere at 24° C. for 48 h. and then the seedlings were moved to a growth chamber at 20° C. for 19 additional days, after which time visual disease ratings were made.

[4] = test system: Alternaria solani; assay: Test C: tomato early blight, preventive spray on tomato seedlings, visual disease rating; settings: for Test C rating (% disease control) / Test C disease control rating: tomato early blight, 100 = 100% disease control; for Test C disease control rating: 0 = no disease control relative to controls; for pest or weed control at 200 µg/mL: Alternaria solani, in Solanum lycopersicum, 168 h, read-out: Test C rating (% disease control)
[5] = test system: Erysiphe graminis f sp. tritici; assay: Test J: wheat powdery mildew, preventive spray on wheat seedlings, visual disease rating; settings: for Test J rating (% disease control) / Test J disease control rating: wheat powdery mildew, 100 = 100% disease control; for Test J disease control rating: sprayed the day before inoculation, 0 = no disease control relative to controls; for pest or weed control at 200 µg/mL: Blumeria graminis, in Triticum aestivum, 192 h, read-out: Test J rating (% disease control)
Description: as §1
The test suspension was sprayed to the point of run-off on wheat seedlings. The following day the seedlings were inoculated with a spore dust of Erysiphe graminis f sp. tritici, (the causal agent of wheat powdery mildew) and incubated in a growth chamber at 20° C. for 8 days, after which time visual disease ratings were made.

[6] = test system: Septoria nodorum; assay: Test F: Septoria glume blotch, preventive spray on wheat seedlings, visual disease rating; settings: for Test F rating (% disease control) / Test F disease control rating: 100 = 100% disease control; for Test F disease control rating: 0 = no disease control relative to controls; for pest or weed control at 200 µg/mL: Parastagonospora nodorum, in Triticum aestivum, 192 h, read-out: Test F rating (% disease control)
[7] = test system: Puccinia recondita f. sp. tritici; assay: Test H: wheat leaf rust, curative spray on inoculated wheat seedlings, visual disease rating; settings: for Test H rating (% disease control) / Test H disease control rating: wheat leaf rust, 100 = 100% disease control; for Test H disease control rating: sprayed after inoculation, 0 = no disease control relative to controls; for pest or weed control at 200 µg/mL: 144 h, read-out: Test H rating (% disease control)
[8] = preventive, 0 = no control relative to controls
[9] = 0 = no control relative to controls
[10] = Septoria glume blotch, 0 = no control relative to controls
[11] = curative, 0 = no control relative to controls
[12] = preventive spray, 0 = no control
[13] = Septoria glume blotch on wheat, preventive spray, 0 = no control

## COc1cc(F)ccc1Nc1c(-c2c(F)cccc2F)c(C)nn1C [compound 199]
[1]; [8]
  Test I rating (% disease control): 68%
[2]; [9]
  Test B rating (% disease control): 99%
[3]; [9]
  Test G rating (% disease control): 99%
[4]; [9]
  Test C rating (% disease control): 86%
[5]; [9]
  Test J rating (% disease control): 98%
[6]; [10]
  Test F rating (% disease control): 0%
[7]; [11]
  Test H rating (% disease control): 0%

## Cc1nn(C)c(Nc2ccc(F)cc2)c1-c1c(F)cc(C#N)cc1F [compound 111]
[1]; [12]
  Test I rating (% disease control): 97%
[2]; [12]
  Test B rating (% disease control): 99%
[3]; [12]
  Test G rating (% disease control): 99%
[4]; [12]
  Test C rating (% disease control): 75%
[5]; [12]
  Test J rating (% disease control): 99%
[6]; [13]
  Test F rating (% disease control): 90%
[7]; curative spray, 0 = no control
  Test H rating (% disease control): 0%

## COc1cc(F)c(-c2c(C)nn(C)c2Nc2ccc(C)cn2)c(F)c1 [compound 66]
[1]; [12]
  Test I rating (% disease control): 100%
[2]; [12]
  Test B rating (% disease control): 100%
[3]; [12]
  Test G rating (% disease control): 100%
[4]; [12]
  Test C rating (% disease control): 99%
[5]; [12]
  Test J rating (% disease control): 99%
[6]; [13]
  Test F rating (% disease control): 0%
[7]; curative spray, 0 = no control
  Test H rating (% disease control): 6%

## Cc1nn(C)c(Nc2c(Cl)cc(F)cc2Cl)c1-c1ccc(Cl)cc1Cl [compound 363]
[1]
  Test I disease control rating: 96%
[2]
  Test B disease control rating: 65%
[3]
  Test G disease control rating: 99%
[4]
  Test C disease control rating: 0%
[5]
  Test J disease control rating: 43%
[6]; Septoria glume blotch on wheat
  Test F disease control rating: 0%
[7]
  Test H disease control rating: 0%

## Cc1nn(C)c(Nc2cc(Cl)ccc2Cl)c1-c1ccc(F)cc1F [compound 245]
[1]; [8]
  Test I rating (% disease control): 68%
[2]; [9]
  Test B rating (% disease control): 90%
[3]; [9]
  Test G rating (% disease control): 97%
[4]; [9]
  Test C rating (% disease control): 0%
[5]; [9]
  Test J rating (% disease control): 93%
[6]; [10]
  Test F rating (% disease control): 0%
[7]; [11]
  Test H rating (% disease control): 0%

## Cc1nn(C)c(Oc2cccc(C#N)c2)c1-c1c(F)cc(F)cc1F [compound 222]
[1]; [8]
  Test I rating (% disease control): 99%
[2]; [9]
  Test B rating (% disease control): 99%
[3]; [9]
  Test G rating (% disease control): 100%
[4]; [9]
  Test C rating (% disease control): 99%
[5]; [9]
  Test J rating (% disease control): 100%
[6]; [10]
  Test F rating (% disease control): 0%
[7]; [11]
  Test H rating (% disease control): 88%

## Cc1nn(C)c(Nc2ccc(F)cc2)c1-c1c(Cl)cccc1Cl [compound 337]
[1]
  Test I disease control rating: 41%
[2]
  Test B disease control rating: 99%
[3]
  Test G disease control rating: 99%
[4]
  Test C disease control rating: 0%
[5]
  Test J disease control rating: 98%
[6]; Septoria glume blotch on wheat
  Test F disease control rating: 0%
[7]
  Test H disease control rating: 9%

## COc1cc(F)c(-c2c(C)nn(C)c2Oc2ccc(C)c(C#N)c2)c(F)c1 [compound 259]
[1]; [8]
  Test I rating (% disease control): 86%
[2]; [9]
  Test B rating (% disease control): 98%
[3]; [9]
  Test G rating (% disease control): 100%
[4]; [9]
  Test C rating (% disease control): 9%
[5]; [9]
  Test J rating (% disease control): 97%
[6]; [10]
  Test F rating (% disease control): 0%
[7]; [11]
  Test H rating (% disease control): 0%

## Cc1nn(C)c(Nc2ccc(F)cc2Cl)c1-c1ccc(F)cc1Cl [Compound 175, N,4-bis(2-chloro-4-fluorophenyl)-1,3-dimethyl-1H-pyrazol-5-amine]
[1]
  pest or weed control at 200 µg/mL: 99%
[2]
  pest or weed control at 200 µg/mL: 100%
[3]
  pest or weed control at 200 µg/mL: 96%
[4]
  pest or weed control at 200 µg/mL: 99%
[5]
  pest or weed control at 200 µg/mL: 100%
[6]
  pest or weed control at 200 µg/mL: 82%
[7]
  pest or weed control at 200 µg/mL: 93%

## COc1cc(F)c(-c2c(C)nn(C)c2Oc2cccc(C#N)c2)c(F)c1 [compound 223]
[1]; [8]
  Test I rating (% disease control): 100%
[2]; [9]
  Test B rating (% disease control): 96%
[3]; [9]
  Test G rating (% disease control): 100%
[4]; [9]
  Test C rating (% disease control): 9%
[5]; [9]
  Test J rating (% disease control): 100%
[6]; [10]
  Test F rating (% disease control): 99%
[7]; [11]
  Test H rating (% disease control): 0%

## Cc1nn(C)c(Oc2cc(C#N)c(C#N)cc2Cl)c1-c1c(F)cc(F)cc1F [compound 163]
[1]; [8]
  Test I rating (% disease control): 88%
[2]; [9]
  Test B rating (% disease control): 0%
[3]; [9]
  Test G rating (% disease control): 83%
[4]; [9]
  Test C rating (% disease control): 9%
[5]; [9]
  Test J rating (% disease control): 0%
[6]; [10]
  Test F rating (% disease control): 0%
[7]; [11]
  Test H rating (% disease control): 0%

## Cc1nn(C)c(Oc2c(F)cc(C#N)cc2F)c1-c1ccc(F)cc1F [compound 170]
[1]; [8]
  Test I rating (% disease control): 100%
[2]; [9]
  Test B rating (% disease control): 100%
[3]; [9]
  Test G rating (% disease control): 98%
[4]; [9]
  Test C rating (% disease control): 99%
[5]; [9]
  Test J rating (% disease control): 99%
[6]; [10]
  Test F rating (% disease control): 99%
[7]; [11]
  Test H rating (% disease control): 0%

## Cc1nn(C)c(Nc2c(F)cc(F)cc2Cl)c1-c1c(F)cccc1Cl [compound 298]
[1]; [8]
  Test I rating (% disease control): 100%
[2]; [9]
  Test B rating (% disease control): 100%
[3]; [9]
  Test G rating (% disease control): 100%
[4]; [9]
  Test C rating (% disease control): 93%
[5]; [9]
  Test J rating (% disease control): 100%
[6]; [10]
  Test F rating (% disease control): 87%
[7]; [11]
  Test H rating (% disease control): 0%

## Cc1nn(C)c(Oc2c(F)cc(C#N)cc2F)c1-c1cccc(F)c1F [compound 274]
[1]; [8]
  Test I rating (% disease control): 0%
[2]; [9]
  Test B rating (% disease control): 8%
[3]; [9]
  Test G rating (% disease control): 96%
[4]; [9]
  Test C rating (% disease control): 0%
[5]; [9]
  Test J rating (% disease control): 69%
[6]; [10]
  Test F rating (% disease control): 0%
[7]; [11]
  Test H rating (% disease control): 8%

## Cc1cccc(Oc2c(-c3c(F)cc(F)cc3F)c(C)nn2C)c1 [compound 219]
[1]; [8]
  Test I rating (% disease control): 0%
[2]; [9]
  Test B rating (% disease control): 70%
[3]; [9]
  Test G rating (% disease control): 0%
[4]; [9]
  Test C rating (% disease control): 0%
[5]; [9]
  Test J rating (% disease control): 0%
[6]; [10]
  Test F rating (% disease control): 0%
[7]; [11]
  Test H rating (% disease control): 17%

## COc1ccc(-c2c(C)nn(C)c2Oc2c(F)cc(C#N)cc2F)c(Cl)c1 [compound 155]
[1]; [8]
  Test I rating (% disease control): 100%
[2]; [9]
  Test B rating (% disease control): 100%
[3]; [9]
  Test G rating (% disease control): 100%
[4]; [9]
  Test C rating (% disease control): 99%
[5]; [9]
  Test J rating (% disease control): 99%
[6]; [10]
  Test F rating (% disease control): 100%
[7]; [11]
  Test H rating (% disease control): 92%

## COc1ccc(Nc2c(-c3ccc(Cl)cc3Cl)c(C)nn2C)c(OC)c1 [compound 57]
[1]; [12]
  Test I rating (% disease control): 85%
[2]; [12]
  Test B rating (% disease control): 98%
[3]; [12]
  Test G rating (% disease control): 94%
[4]; [12]
  Test C rating (% disease control): 0%
[5]; [12]
  Test J rating (% disease control): 0%
[6]; [13]
  Test F rating (% disease control): 0%
[7]; curative spray, 0 = no control
  Test H rating (% disease control): 85%

## Cc1nn(C)c(Nc2cc(C#N)ccc2Cl)c1-c1ccc(F)cc1Cl [compound 235]
[1]; [8]
  Test I rating (% disease control): 0%
[2]; [9]
  Test B rating (% disease control): 84%
[3]; [9]
  Test G rating (% disease control): 17%
[4]; [9]
  Test C rating (% disease control): 0%
[5]; [9]
  Test J rating (% disease control): 79%
[6]; [10]
  Test F rating (% disease control): 0%
[7]; [11]
  Test H rating (% disease control): 0%

## COc1cc(F)c(-c2c(C)nn(C)c2Nc2c(F)cc(F)cc2F)c(F)c1 [Compound 24, 4-(2,6-difluoro-4-methoxyphenyl)-1,3-dimethyl-N-(2,4,6-trifluorophenyl)-1H-pyrazol-5-amine]
[1]
  pest or weed control at 200 µg/mL: 97%
[2]
  pest or weed control at 200 µg/mL: 98%
[3]
  pest or weed control at 200 µg/mL: 94%
[4]
  pest or weed control at 200 µg/mL: 100%
[5]
  pest or weed control at 200 µg/mL: 100%
[6]
  pest or weed control at 200 µg/mL: 0%
[7]
  pest or weed control at 200 µg/mL: 9%

## Cc1nn(C)c(Nc2c(F)cc(F)cc2F)c1-c1c(F)cccc1C(F)(F)F [compound 262]
[1]; [8]
  Test I rating (% disease control): 68%
[2]; [9]
  Test B rating (% disease control): 99%
[3]; [9]
  Test G rating (% disease control): 0%
[4]; [9]
  Test C rating (% disease control): 51%
[5]; [9]
  Test J rating (% disease control): 99%
[6]; [10]
  Test F rating (% disease control): 0%
[7]; [11]
  Test H rating (% disease control): 0%

## Cc1nn(C)c(Nc2ncccc2Cl)c1-c1c(F)cc(F)cc1F [compound 241]
[1]; [8]
  Test I rating (% disease control): 100%
[2]; [9]
  Test B rating (% disease control): 99%
[3]; [9]
  Test G rating (% disease control): 100%
[4]; [9]
  Test C rating (% disease control): 99%
[5]; [9]
  Test J rating (% disease control): 100%
[6]; [10]
  Test F rating (% disease control): 0%
[7]; [11]
  Test H rating (% disease control): 97%
